Data published in US20070043049A1, “Substituted heterocyclic diarylamine analogues” (Neurogen Corporation, priority 2003, published 2007).

These compounds were tested against T1, human capsaicin receptor (Homo sapiens, UniProt Q8NER1) (assay: Calcium mobilization assay, determination of antagonist activity (Example 6)). Settings: 50% decrease in fluorescence response of cells expressing human capsaicin receptor exposed to capsaicin.
T1 construct: pBK-CMV expression construct encoding the full length human capsaicin receptor; expressed in transfected cells
Format: cell-based
Description: A cDNA encoding full length human capsaicin receptor (SEQ ID NO:1, 2 or 3 of U.S. Pat. No. 6,482,611) was subcloned in the plasmid pBK-CMV (Stratagene, La Jolla, Calif.) for recombinant expression in mammalian cells.
Human embryonic kidney (HEK293) cells were transfected with the pBK-CMV expression construct encoding the full length human capsaicin receptor using standard methods. The transfected cells were selected for two weeks in media containing G418 (400 μg/ml) to obtain a pool of stably transfected cells. Independent clones were isolated from this pool by limiting dilution to obtain clonal stable cell lines for use in subsequent experiments.
Cells transfected with expression plasmids (as described in Example 4) and thereby expressing human capsaicin receptor are seeded and grown to 70-90% confluency in FALCON black-walled, clear-bottomed 96-well plates (#3904, BECTON-DICKINSON, Franklin Lakes, N.J.). The culture medium is emptied from the 96 well plates and FLUO-3 AM calcium sensitive dye (Molecular Probes, Eugene, Oreg.) is added to each well (dye solution: 1 mg FLUO-3 AM, 440 μL DMSO and 440 μl 20% pluronic acid in DMSO, diluted 1:250 in Krebs-Ringer HEPES (KRH) buffer (25 mM HEPES, 5 mM KCl, 0.96 mM NaH2PO4, 1 mM MgSO4, 2 mM CaCl2, 5 mM glucose, 1 mM probenecid, pH 7.4), 50 μl diluted solution per well). Plates are covered with aluminum foil and incubated at 37° C. for 1-2 hours in an environment containing 5% CO2. After the incubation, the dye is emptied from the plates, and the cells are washed once with KRH buffer, and resuspended in KRH buffer.
To measure the ability of a test compound to agonize or antagonize a calcium mobilization response in cells expressing capsaicin receptors to capsaicin or other vanilloid agonist, the EC50 of the agonist capsaicin is first determined. An additional 20 μl of KRH buffer and 1 μl DMSO is added to each well of cells, prepared as described above. 100 μl capsaicin in KRH buffer is automatically transferred by the FLIPR instrument to each well. Capsaicin-induced calcium mobilization is monitored using either FLUOROSKAN ASCENT (Labsystems; Franklin, Mass.) or FLIPR (fluorometric imaging plate reader system; Molecular Devices, Sunnyvale, Calif.) instruments. Data obtained between 30 and 60 seconds after agonist application are used to generate an 8-point concentration response curve, with final capsaicin concentrations of 1 nM to 3 μM. KALEIDAGRAPH software (Synergy Software, Reading, Pa.) is used to fit the data to the equation: y=a*(1/(1+(b/x)^c)) to determine the 50% excitatory concentration (EC50) for the response. In this equation, y is the maximum fluorescence signal, x is the concentration of the agonist or antagonist (in this case, capsaicin), a is the Emax, b corresponds to the EC50 value and c is the Hill coefficient. Determination of Agonist Activity
Test compounds are dissolved in DMSO, diluted in 20 μl KRH buffer so that the final concentration of test compounds in the assay well is between 1 μM and 5 μM, and added to cells prepared as described above. The 96 well plates containing prepared cells and test compounds are incubated in the dark, at room temperature for 0.5 to 6 hours. It is important that the incubation not continue beyond 6 hours. Just prior to determining the fluorescence response, 100 μl capsaicin in KRH buffer at twice the EC50 concentration determined as described above is automatically added by the FLIPR instrument to each well of the 96 well plate for a final sample volume of 200 μl and a final capsaicin concentration equal to the EC50. The final concentration of test compounds in the assay wells is between 1 μM and […]. […] The concentration of antagonist required to provide a 50% decrease, relative to the response observed in the presence of capsaicin and without antagonist, is the IC50 for the antagonist, and is preferably below 1 micromolar, 100 nanomolar, 10 nanomolar or 1 nanomolar.

T1 sequence (Q8NER1 whole entry): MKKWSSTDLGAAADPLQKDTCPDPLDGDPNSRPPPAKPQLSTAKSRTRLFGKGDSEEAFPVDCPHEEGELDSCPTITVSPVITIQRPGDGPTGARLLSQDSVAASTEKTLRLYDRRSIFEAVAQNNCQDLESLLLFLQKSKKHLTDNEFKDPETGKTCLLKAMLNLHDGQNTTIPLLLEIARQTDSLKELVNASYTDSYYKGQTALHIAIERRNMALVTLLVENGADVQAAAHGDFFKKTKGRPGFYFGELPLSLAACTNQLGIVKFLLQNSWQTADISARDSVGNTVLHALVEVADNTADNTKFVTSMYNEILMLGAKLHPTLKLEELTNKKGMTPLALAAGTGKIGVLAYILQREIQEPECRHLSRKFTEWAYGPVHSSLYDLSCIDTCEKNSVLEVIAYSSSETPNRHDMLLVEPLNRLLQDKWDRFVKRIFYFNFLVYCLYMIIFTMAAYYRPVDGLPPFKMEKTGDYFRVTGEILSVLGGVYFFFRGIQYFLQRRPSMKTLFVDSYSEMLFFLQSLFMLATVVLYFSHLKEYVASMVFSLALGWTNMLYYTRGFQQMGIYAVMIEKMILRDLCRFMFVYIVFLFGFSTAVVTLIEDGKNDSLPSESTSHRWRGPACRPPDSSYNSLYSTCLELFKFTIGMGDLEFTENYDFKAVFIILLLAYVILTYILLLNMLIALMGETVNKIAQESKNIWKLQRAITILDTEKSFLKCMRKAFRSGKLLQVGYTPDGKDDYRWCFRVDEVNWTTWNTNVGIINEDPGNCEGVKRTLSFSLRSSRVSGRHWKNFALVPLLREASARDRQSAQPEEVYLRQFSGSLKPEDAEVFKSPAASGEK

IC50, ≤ 1000 nM:
C[C@@H]1CN(c2ncccc2Cl)CCN1c1nc(Nc2cccc(F)c2)nc(N2CCOCC2)n1 (stereo in doubt) [Compound 104, {4-[4-(3-Chloro-pyridin-2-yl)-2-methyl-piperazin-1-yl]-6-morpholin-4-yl-[1,3,5]triazin-2-yl}-(3-fluoro-phenyl)-amine]
CC(C)c1ccc(-c2nc(Nc3ccc(C(F)(F)F)cc3)nc(N3CCN(c4ncccc4Cl)C[C@H]3C)n2)cc1 (stereo in doubt) [Compound 114, [4-[4-(3-Chloro-pyridin-2-yl)-2-methyl-piperazin-1-yl]-6-(4-isopropyl-phenyl)-[1,3,5]triazin-2-yl]-(4-trifluoromethyl-phenyl)-amine]
C[C@@H]1CN(c2ncccc2Cl)CCN1c1cc(Nc2ccc(C(C)(C)C)cc2)ncn1 [Compound 1, (4-tert-Butyl-phenyl)-{6-[4-(3-chloro-pyridin-2-yl)-2-methyl-piperazin-1-yl]-pyrimidin-4-yl}-amine (R)]
C[C@@H]1CN(c2ncccc2Cl)CCN1c1nc(Cl)nc(Nc2ccc(C(C)(C)C)cc2)n1 [Compound 2, (4-tert-Butyl-phenyl)-{4-chloro-6-[4-(3-chloro-pyridin-2-yl)-2-methyl-piperazin-1-yl]-[1,3,5]triazin-2-yl}-amine (R)]
C[C@@H]1CN(c2ncccc2C(F)(F)F)CCN1c1nc(Cl)nc(Nc2ccc(C(C)(C)C)cc2)n1 [Compound 3, (4-tert-Butyl-phenyl)-{4-chloro-6-[2-methyl-4-(3-trifluoromethyl-pyridin-2-yl)-piperazin-1-yl]-[1,3,5]triazin-2-yl}-amine (R)]
C[C@@H]1CN(c2ncccc2Cl)CCN1c1nc(Nc2ccc(C(C)(C)C)cc2)nc(OCc2ccccc2C(F)(F)F)n1 [Compound 5, (4-tert-Butyl-phenyl)-[4-[4-(3-chloro-pyridin-2-yl)-2-methyl-piperazin-1-yl]-6-(2-trifluoromethyl-benzyloxy)-[1,3,5]triazin-2-yl]-amine (R)]
C[C@@H]1CN(c2ncccc2C(F)(F)F)CCN1c1nc(Nc2ccc(C(C)(C)C)cc2)nc(OCc2ccccc2C(F)(F)F)n1 [Compound 6, (4-tert-Butyl-phenyl)-[4-[2-methyl-4-(3-trifluoromethyl-pyridin-2-yl)-piperazin-1-yl]-6-(2-trifluoromethyl-benzyloxy)-[1,3,5]triazin-2-yl]-amine (R)]
C[C@@H]1CN(c2ncccc2F)CCN1c1nc(Nc2ccc(C(C)(C)C)cc2)nc(OCc2ccccc2C(F)(F)F)n1 [Compound 7, (4-tert-Butyl-phenyl)-[4-[4-(3-fluoro-pyridin-2-yl)-2-methyl-piperazin-1-yl]-6-(2-trifluoromethyl-benzyloxy)-[1,3,5]triazin-2-yl]-amine (R)]
C[C@@H]1CN(c2ncccc2Cl)CCN1c1nc(Nc2ccc(C(F)(F)F)cc2)nc(OCc2ccccc2C(F)(F)F)n1 [Compound 8, [4-[4-(3-Chloro-pyridin-2-yl)-2-methyl-piperazin-1-yl]-6-(2-trifluoromethyl-benzyloxy)-[1,3,5]triazin-2-yl]-(4-trifluoromethyl-phenyl)-amine (R)]
C[C@@H]1CN(c2ncccc2C(F)(F)F)CCN1c1nc(Nc2ccc(C(F)(F)F)cc2)nc(OCc2ccccc2C(F)(F)F)n1 [Compound 9]
C[C@@H]1CN(c2ncccc2F)CCN1c1nc(Nc2ccc(C(F)(F)F)cc2)nc(OCc2ccccc2C(F)(F)F)n1 [Compound 10, [4-[4-(3-Fluoro-pyridin-2-yl)-2-methyl-piperazin-1-yl]-6-(2-trifluoromethyl-benzyloxy)-[1,3,5]triazin-2-yl]-(4-trifluoromethyl-phenyl)-amine (R)]
CC(C)(C)c1ccc(Nc2nc(OCc3ccccc3C(F)(F)F)nc(N3CCN(c4ccccn4)CC3)n2)cc1 [Compound 11, (4-tert-Butyl-phenyl)-[4-(4-pyridin-2-yl-piperazin-1-yl)-6-(2-trifluoromethyl-benzyloxy)-[1,3,5]triazin-2-yl]-amine]
COc1ccccc1N1CCN(c2nc(Nc3ccc(C(C)(C)C)cc3)nc(OCc3ccccc3C(F)(F)F)n2)CC1 [Compound 12, (4-tert-Butyl-phenyl)-[4-[4-(2-methoxy-phenyl)-piperazin-1-yl]-6-(2-trifluoromethyl-benzyloxy)-[1,3,5]triazin-2-yl]-amine]
C[C@H]1CN(c2ncccc2C(F)(F)F)CCN1c1nc(Cl)nc(Nc2ccc(C(F)(F)F)cc2)n1 [Compound 13, {4-Chloro-6-[2-methyl-4-(3-trifluoromethyl-pyridin-2-yl)-piperazin-1-yl]-[1,3,5]triazin-2-yl}-(4-trifluoromethyl-phenyl)-amine (S)]
C[C@H]1CN(c2ncccc2C(F)(F)F)CCN1c1nc(Nc2ccc(C(F)(F)F)cc2)nc(-c2ccc(C(F)(F)F)cc2)n1 [Compound 14, [4-[2-Methyl-4-(3-trifluoromethyl-pyridin-2-yl)-piperazin-1-yl]-6-(4-trifluoromethyl-phenyl)-[1,3,5]triazin-2-yl]-(4-trifluoromethyl-phenyl)-amine (S)]
CC(C)CCNc1nc(Nc2ccc(C(F)(F)F)cc2)nc(N2CCN(c3ncccc3C(F)(F)F)C[C@@H]2C)n1 [Compound 15, N-(3-Methyl-butyl)-6-[2-methyl-4-(3-trifluoromethyl-pyridin-2-yl)-piperazin-1-yl]-N′-(4-trifluoromethyl-phenyl)-[1,3,5]triazine-2,4-diamine (S)]
C[C@H]1CN(c2ncccc2C(F)(F)F)CCN1c1nc(Nc2ccc(C(F)(F)F)cc2)nc(-c2ccccc2Cl)n1 [Compound 16, {4-(2-Chloro-phenyl)-6-[2-methyl-4-(3-trifluoromethyl-pyridin-2-yl)-piperazin-1-yl]-[1,3,5]triazin-2-yl}-(4-trifluoromethyl-phenyl)-amine (S)]
C[C@@H]1CN(c2ncccc2Cl)CCN1c1nc(Cl)cc(Nc2ccc(C(F)(F)F)cc2)n1 [Compound 17, {6-Chloro-2-[4-(3-chloro-pyridin-2-yl)-2-methyl-piperazin-1-yl]-pyrimidin-4-yl}-(4-trifluoromethyl-phenyl)-amine (R)]
C[C@@H]1CN(c2ncccc2Cl)CCN1c1nc(Nc2ccc(C(F)(F)F)cc2)nc(N(C)C)n1 [Compound 18, 6-[4-(3-Chloro-pyridin-2-yl)-2-methyl-piperazin-1-yl]-N,N-dimethyl-N′-(4-trifluoromethyl-phenyl)-[1,3,5]triazine-2,4-diamine (R)]
CCCCNc1nc(Nc2ccc(C(F)(F)F)cc2)nc(N2CCN(c3ncccc3Cl)C[C@H]2C)n1 [Compound 19, N-Butyl-6-[4-(3-chloro-pyridin-2-yl)-2-methyl-piperazin-1-yl]-N′-(4-trifluoromethyl-phenyl)-[1,3,5]triazine-2,4-diamine (R)]
CN(C)c1nc(Nc2ccc(C(F)(F)F)cc2)nc(N2CCN(c3ncccc3C(F)(F)F)CC2)n1 [Compound 20, N,N-Dimethyl-N′-(4-trifluoromethyl-phenyl)-6-[4-(3-trifluoromethyl-pyridin-2-yl)-piperazin-1-yl]-[1,3,5]triazine-2,4-diamine]
